Key:
[1] = target: Integrin alpha-IIb/beta-3 (Homo sapiens); assay: Antagonist activity against integrin alpha2bbeta3 closed form in human platelet rich plasma assessed as inhibition of ADP-induced platelet aggregation
[2] = target: Integrin alpha-IIb/beta-3 (Homo sapiens); assay: Antagonist activity against integrin alpha2bbeta3 open form in human platelet rich plasma assessed as inhibition of ADP-induced platelet aggregation

Compound | IC50 [1] | IC50 [2]
NCCC(=O)Nc1ccc2nc(N3CCNCC3)[nH]c(=O)c2c1 | 150 nM | 
O=C(CCNC(=O)c1ccc2c(c1)CNCC2)NC[C@H](NS(=O)(=O)c1ccccc1)C(=O)O |  | 6.2 nM
NCCCC(=O)Nc1ccc2nc(N3CCNCC3)[nH]c(=O)c2c1 | 11 nM | 
O=C(Nc1ccc2nc(N3CCNCC3)[nH]c(=O)c2c1)C1CCNCC1 | 100 nM | 
CCCCS(=O)(=O)N[C@H](CNC(=O)CCNC(=O)c1ccc2c(c1)CNCC2)C(=O)O |  | 670 nM
O=C(CCNC(=O)c1ccc2c(c1)CNCC2)NC[C@@H](NS(=O)(=O)c1ccccc1)C(=O)O |  | 25 nM
CCCCS(=O)(=O)N[C@@H](CNC(=O)CCNC(=O)c1ccc2c(c1)CNCC2)C(=O)O |  | 320 nM
